Assay results: PubChem BioAssay AID1259407 (Chemical Carcinogenesis Research Information System (CCRIS), 2018)
Calls of active or inactive are those of the source. How the calls were made is not given here.

Tested on: CCRIS mutagenicity, Ames/micronucleus/aberration tests
Assay: CCRIS mutagenicity studies

Compound: Nc1ncc([N+](=O)[O-])s1
- mutagenic call (Test System: AMES SALMONELLA TYPHIMURIUM, Strain/Indicator: TA98, Metabolic Activation: HAMSTER, LIVER, S-9, AROCLOR 1254, Method: STANDARD PLATE): inactive; negative
- mutagenic call (Test System: AMES SALMONELLA TYPHIMURIUM, Strain/Indicator: TA98, Metabolic Activation: HAMSTER, LIVER, S-9, Method: STANDARD PLATE): inactive; negative
- mutagenic call (Test System: AMES SALMONELLA TYPHIMURIUM, Strain/Indicator: TA98, Metabolic Activation: MOUSE, LIVER, S-9, AROCLOR 1254, Method: STANDARD PLATE): inactive; negative
- mutagenic call (Test System: AMES SALMONELLA TYPHIMURIUM, Strain/Indicator: TA98, Metabolic Activation: MOUSE, LIVER, S-9, Method: STANDARD PLATE): inactive; negative
- mutagenic call (Test System: AMES SALMONELLA TYPHIMURIUM, Strain/Indicator: TA98, Metabolic Activation: NONE, Method: STANDARD PLATE): inactive; negative
- mutagenic call (Test System: AMES SALMONELLA TYPHIMURIUM, Strain/Indicator: TA98, Metabolic Activation: RAT, LIVER, S-9, AROCLOR 1254, Method: STANDARD PLATE): inactive; negative
- mutagenic call (Test System: AMES SALMONELLA TYPHIMURIUM, Strain/Indicator: TA98, Metabolic Activation: RAT, LIVER, S-9, Method: STANDARD PLATE): inactive; negative
- mutagenic call (Test System: AMES SALMONELLA TYPHIMURIUM, Strain/Indicator: TA100, Metabolic Activation: HAMSTER, LIVER, S-9, AROCLOR 1254, Method: STANDARD PLATE): inactive; negative
- mutagenic call (Test System: AMES SALMONELLA TYPHIMURIUM, Strain/Indicator: TA100, Metabolic Activation: NONE, Method: STANDARD PLATE): inactive; negative
- mutagenic call (Test System: AMES SALMONELLA TYPHIMURIUM, Strain/Indicator: TA1535, Metabolic Activation: HAMSTER, LIVER, S-9, AROCLOR 1254, Method: STANDARD PLATE): inactive; negative
- mutagenic call (Test System: AMES SALMONELLA TYPHIMURIUM, Strain/Indicator: TA1535, Metabolic Activation: HAMSTER, LIVER, S-9, Method: STANDARD PLATE): inactive; negative
- mutagenic call (Test System: AMES SALMONELLA TYPHIMURIUM, Strain/Indicator: TA1535, Metabolic Activation: MOUSE, LIVER, S-9, AROCLOR 1254, Method: STANDARD PLATE): inactive; negative
- mutagenic call (Test System: AMES SALMONELLA TYPHIMURIUM, Strain/Indicator: TA1535, Metabolic Activation: MOUSE, LIVER, S-9, Method: STANDARD PLATE): inactive; negative
- mutagenic call (Test System: AMES SALMONELLA TYPHIMURIUM, Strain/Indicator: TA1535, Metabolic Activation: NONE, Method: STANDARD PLATE): inactive; negative
- mutagenic call (Test System: AMES SALMONELLA TYPHIMURIUM, Strain/Indicator: TA1535, Metabolic Activation: RAT, LIVER, S-9, AROCLOR 1254, Method: STANDARD PLATE): inactive; negative
- mutagenic call (Test System: AMES SALMONELLA TYPHIMURIUM, Strain/Indicator: TA1535, Metabolic Activation: RAT, LIVER, S-9, Method: STANDARD PLATE): inactive; negative
- mutagenic call (Test System: AMES SALMONELLA TYPHIMURIUM, Strain/Indicator: TA1537, Metabolic Activation: HAMSTER, LIVER, S-9, AROCLOR 1254, Method: STANDARD PLATE): inactive; negative
- mutagenic call (Test System: AMES SALMONELLA TYPHIMURIUM, Strain/Indicator: TA1537, Metabolic Activation: HAMSTER, LIVER, S-9, Method: STANDARD PLATE): inactive; negative
- mutagenic call (Test System: AMES SALMONELLA TYPHIMURIUM, Strain/Indicator: TA1537, Metabolic Activation: MOUSE, LIVER, S-9, AROCLOR 1254, Method: STANDARD PLATE): inactive; negative
- mutagenic call (Test System: AMES SALMONELLA TYPHIMURIUM, Strain/Indicator: TA1537, Metabolic Activation: MOUSE, LIVER, S-9, Method: STANDARD PLATE): inactive; negative
- mutagenic call (Test System: AMES SALMONELLA TYPHIMURIUM, Strain/Indicator: TA1537, Metabolic Activation: NONE, Method: STANDARD PLATE): inactive; negative
- mutagenic call (Test System: AMES SALMONELLA TYPHIMURIUM, Strain/Indicator: TA1537, Metabolic Activation: RAT, LIVER, S-9, AROCLOR 1254, Method: STANDARD PLATE): inactive; negative
- mutagenic call (Test System: AMES SALMONELLA TYPHIMURIUM, Strain/Indicator: TA1537, Metabolic Activation: RAT, LIVER, S-9, Method: STANDARD PLATE): inactive; negative
- mutagenic call (Test System: AMES SALMONELLA TYPHIMURIUM, Strain/Indicator: TA1538, Metabolic Activation: HAMSTER, LIVER, S-9, AROCLOR 1254, Method: STANDARD PLATE): inactive; negative
- mutagenic call (Test System: AMES SALMONELLA TYPHIMURIUM, Strain/Indicator: TA1538, Metabolic Activation: HAMSTER, LIVER, S-9, Method: STANDARD PLATE): inactive; negative
- mutagenic call (Test System: AMES SALMONELLA TYPHIMURIUM, Strain/Indicator: TA1538, Metabolic Activation: MOUSE, LIVER, S-9, AROCLOR 1254, Method: STANDARD PLATE): inactive; negative
- mutagenic call (Test System: AMES SALMONELLA TYPHIMURIUM, Strain/Indicator: TA1538, Metabolic Activation: MOUSE, LIVER, S-9, Method: STANDARD PLATE): inactive; negative
- mutagenic call (Test System: AMES SALMONELLA TYPHIMURIUM, Strain/Indicator: TA1538, Metabolic Activation: NONE, Method: STANDARD PLATE): inactive; negative
- mutagenic call (Test System: AMES SALMONELLA TYPHIMURIUM, Strain/Indicator: TA1538, Metabolic Activation: RAT, LIVER, S-9, AROCLOR 1254, Method: STANDARD PLATE): inactive; negative
- mutagenic call (Test System: AMES SALMONELLA TYPHIMURIUM, Strain/Indicator: TA1538, Metabolic Activation: RAT, LIVER, S-9, Method: STANDARD PLATE): inactive; negative
- mutagenic call (Test System: E. COLI, Strain/Indicator: WP2 UVRA, Metabolic Activation: HAMSTER, LIVER, S-9, AROCLOR 1254, Method: STANDARD PLATE): inactive; negative
- mutagenic call (Test System: E. COLI, Strain/Indicator: WP2 UVRA, Metabolic Activation: HAMSTER, LIVER, S-9, Method: STANDARD PLATE): inactive; negative
- mutagenic call (Test System: E. COLI, Strain/Indicator: WP2 UVRA, Metabolic Activation: MOUSE, LIVER, S-9, AROCLOR 1254, Method: STANDARD PLATE): inactive; negative
- mutagenic call (Test System: E. COLI, Strain/Indicator: WP2 UVRA, Metabolic Activation: MOUSE, LIVER, S-9, Method: STANDARD PLATE): inactive; negative
- mutagenic call (Test System: E. COLI, Strain/Indicator: WP2 UVRA, Metabolic Activation: NONE, Method: STANDARD PLATE): inactive; negative
- mutagenic call (Test System: E. COLI, Strain/Indicator: WP2 UVRA, Metabolic Activation: RAT, LIVER, S-9, AROCLOR 1254, Method: STANDARD PLATE): inactive; negative
- mutagenic call (Test System: E. COLI, Strain/Indicator: WP2 UVRA, Metabolic Activation: RAT, LIVER, S-9, Method: STANDARD PLATE): inactive; negative
- mutagenic call (Test System: MOUSE LYMPHOMA, Strain/Indicator: L5178Y (TK+/TK-), Metabolic Activation: NONE, Method: SUSPENSION/PLATE): active; positive
- mutagenic call (Test System: MOUSE LYMPHOMA, Strain/Indicator: L5178Y (TK+/TK-), Metabolic Activation: RAT, LIVER, S-9, AROCLOR 1254, Method: SUSPENSION/PLATE): active; positive
